Earlier results on 5 molecules are cited in patent US9199951B2, “Process for the manufacture of a 1,2-epoxide” (Hexion Inc., priority 2008, dated 2015).

≈ marks a conversion by molar mass, not a printed value.

In general, solubility refers to the dissolved amount per volume that the medium holds.

For this data set the following is noted: grams per liter water at 20° C.; for Solubility in water: terminal olefins of Table 2.

With `C=CCCCCCC` [1-octene], the Solubility in water is 0.27 µg/mL (≈ 2.41 µM).

On to `C=CCOC(C)=O` [Allyl acetate], for which the solubility result is “about 10 g/L” and the Solubility in water was roughly 10000 µg/mL. In the case of `C=CCO` [Allyl alcohol], the Solubility in water entry is “miscible”.

As to `C=CCCl` [Allyl chloride], the solubility was 3600 µg/mL and the Solubility in water is 3600 µg/mL.

Take `C=CCBr` [allyl bromide]: the solubility is 4000 µg/mL.
